# Measured values as given in patent US20210228562A1, “IRAK DEGRADERS AND USES THEREOF” (Kymera Therapeutics, Inc., priority 2019, published 2021).
# Experiments:
# Type in all cases: cell-based
# [1] = biological target: T1, Ikaros (protein product of gene IKZF1) (Homo sapiens, UniProt Q13422+Q96SW2); experiment: Quantification of Ikaros degradation in OCI-LY10 cells (quantitative immunoblotting); conditions: 6 h treatment
# T1 construct: endogenous in cells; host or cells: OCI-LY10
# Protocol: (§1) Degradation of Ikaros (protein product of gene IKZF1) and Aiolos (protein product of gene IKZF3) were determined by quantitative immunoblotting as follows. OCI-LY10 cells, 2×10^6 cells/well, were treated with listed concentrations of IRAK4 degraders or control compounds in 6 well plates for 6 h. Cells were collected, washed with cold PBS, lysed in RIPA buffer (Boston BioProducts BP-115D) with protease/phosphatase inhibitor cocktail (Roche 05892791001/Roche 04906837001) and centrifuged at 13000 RPM for 20 min to precipitate insoluble material. The supernatant fraction was diluted in SDS-PAGE loading buffer (Beyotime Bio P0015) and 20 μL of each sample was resolved on 4-12% Bis-Tris SDS-PAGE gels (Novex, WG1402BOX). Resolved samples were transferred to nitrocellulose membranes by wet electro-transfer method at 250 mV for 1.5 h. The membrane was blocked with LICOR blocking buffer (LI-COR, 927-50000) for 1 hour, washed three times with TBST (CST #99975) for 5 minutes each and incubated with primary antibody prepared in block buffer with 0.1% Tween-20 (Solarbio, P8220) at 4° C. overnight. Ikaros antibody was rabbit monoclonal D6N9Y (CST #14859), at 1:1000 dilution. Aiolos antibody was rabbit monoclonal D1C1E (CST #15103), at 1:1000 dilution. Signal was normalized to mouse anti-beta-Actin monoclonal 8H10D10 (CST #3700) used at 1:10,000 dilution. After incubation in primary antibodies, membranes were washed three times with TBST, 5 minutes each, incubated with fluorescently labeled secondary antibodies anti-rabbit IgG (Licor, 926-32211) at 1:5000 dilution; anti-mouse IgG (LI-COR, 926-68070) at 1:5000 dilution, for 1 hour at RT. After incubation in secondary, membranes were washed three times with TBST, 5 minutes each and read on LICOR Odyssey imager. Data was reported as signal for Ikaros or Aiolos relative to signal for actin, and normalized to DMSO-treated control.
# [2] = biological target: T2, Aiolos (protein product of gene IKZF3) (Homo sapiens, UniProt Q96SW2+Q9UKT9); experiment: Quantification of Aiolos degradation in OCI-LY10 cells (quantitative immunoblotting); conditions: 6 h treatment
# T2 construct: endogenous in cells; host or cells: OCI-LY10
# Protocol: as §1
# [3] = biological target: T3, IRAK4 (Homo sapiens, UniProt Q9NWZ3); experiment: IRAK4 MSD Degradation in OCI-LY10; conditions: OCI-LY10 cells, 24 hrs incubation; read-out: IRAK4 degradation in OCI-LY10 at 24 hrs: DC50
# T3 construct: endogenous in cells; host or cells: OCI-LY10
# T3 sequence (Q9NWZ3 1-460): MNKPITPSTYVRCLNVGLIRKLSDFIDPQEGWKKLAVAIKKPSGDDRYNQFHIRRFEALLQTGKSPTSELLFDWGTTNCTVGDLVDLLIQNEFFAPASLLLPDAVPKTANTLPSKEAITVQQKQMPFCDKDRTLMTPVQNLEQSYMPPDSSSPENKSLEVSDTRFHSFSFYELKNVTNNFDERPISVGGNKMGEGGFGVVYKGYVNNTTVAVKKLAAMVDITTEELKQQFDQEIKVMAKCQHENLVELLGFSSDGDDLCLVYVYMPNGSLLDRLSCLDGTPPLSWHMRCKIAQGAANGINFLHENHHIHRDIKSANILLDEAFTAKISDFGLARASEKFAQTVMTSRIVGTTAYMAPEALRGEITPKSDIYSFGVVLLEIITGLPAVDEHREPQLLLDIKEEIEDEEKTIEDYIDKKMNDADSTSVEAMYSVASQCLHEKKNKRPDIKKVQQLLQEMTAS
# Protocol: Degradation of IRAK4 in OCI-LY10 was quantitatively measured using Meso Scale Discovery technology. OCI-LY10 cells were seeded in 96-well plates (Corning 3799) with a density of 300,000 cells per well in 100 μL fresh media. Compounds were then added to the assay plates with a final top concentration of 1 to 10 μM in a 1:3 dilution series with total of 8 doses. The assay plates were then incubated for 4 to 24 hours at 37° C. under 5% CO2. The assay plates were then centrifuged for 5 minutes and the cell pellets were treated with 100 μL/well RIPA lysis buffer (Boston BioProducts BP-115D) with proteinase inhibitors. To prepare MSD assay plates (Meso Scale Discovery Catalog number L15XA-3), the plates were coated with 2 μg/mL capture antibody (mouse Anti-IRAK4 antibody [2H9], ab119942) in PBS, at 40 μL/well. The plates were then incubated overnight at 4° C., washed 3 times with 150 μL/well TBST buffer (Cell Signaling Technology, Catalog number 9997S) and blocked with 150 μL/well blocking buffer (Meso Scale Discovery Catalog number R93BA-4). Cell lysates were then added to MSD assay plates and the plates were incubated at room temperature for 1 hour. The plates were then washed 3 times with 150 μL/well TBST buffer and 25 μL/well primary detection antibody (rabbit Anti-IRAK4 antibody [Y279], from Abcam. Catalog number ab32511, 1 μg/mL). The assay plates were then incubated at room temperature for 1 hour, washed 3 times with 150 μL/well TBST buffer and 25 μL/well secondary detection antibody, SULFO-TAG anti-rabbit antibody were added (anti rabbit antibody from Meso Scale Discovery, Catalog number R32AB-1, 1 μg/mL). The assay plates were then incubated at room temperature for 1 hour, washed 3 times with 150 μL/well TBST buffer, and 150 μL/well MSD reading buffer (Meso Scale Discovery catalog number R92TC-2) was added. The plates were then analyzed by a MSD reader (Meso Scale Discovery, Model Quick Plex SQ 120). The data was then analyzed by software Prism 7.0 from GraphPad and the dose-depended IRAK4 degradation were fit using a three-parameter logistic equation to calculate DC50.
# T1 sequence (Q13422 whole entry): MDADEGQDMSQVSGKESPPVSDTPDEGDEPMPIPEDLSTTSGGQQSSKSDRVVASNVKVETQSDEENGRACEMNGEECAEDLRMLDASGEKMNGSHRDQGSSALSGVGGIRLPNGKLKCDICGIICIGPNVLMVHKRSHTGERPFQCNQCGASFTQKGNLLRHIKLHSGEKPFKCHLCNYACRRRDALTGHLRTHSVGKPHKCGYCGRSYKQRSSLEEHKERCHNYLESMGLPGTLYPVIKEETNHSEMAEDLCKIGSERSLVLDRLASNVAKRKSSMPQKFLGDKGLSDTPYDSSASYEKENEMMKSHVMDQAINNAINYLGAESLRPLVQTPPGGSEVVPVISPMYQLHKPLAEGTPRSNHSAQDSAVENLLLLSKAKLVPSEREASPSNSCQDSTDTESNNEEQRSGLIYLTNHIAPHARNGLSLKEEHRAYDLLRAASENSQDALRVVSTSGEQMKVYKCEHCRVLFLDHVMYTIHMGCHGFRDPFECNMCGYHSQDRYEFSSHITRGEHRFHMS
# T1 sequence (Q96SW2 whole entry): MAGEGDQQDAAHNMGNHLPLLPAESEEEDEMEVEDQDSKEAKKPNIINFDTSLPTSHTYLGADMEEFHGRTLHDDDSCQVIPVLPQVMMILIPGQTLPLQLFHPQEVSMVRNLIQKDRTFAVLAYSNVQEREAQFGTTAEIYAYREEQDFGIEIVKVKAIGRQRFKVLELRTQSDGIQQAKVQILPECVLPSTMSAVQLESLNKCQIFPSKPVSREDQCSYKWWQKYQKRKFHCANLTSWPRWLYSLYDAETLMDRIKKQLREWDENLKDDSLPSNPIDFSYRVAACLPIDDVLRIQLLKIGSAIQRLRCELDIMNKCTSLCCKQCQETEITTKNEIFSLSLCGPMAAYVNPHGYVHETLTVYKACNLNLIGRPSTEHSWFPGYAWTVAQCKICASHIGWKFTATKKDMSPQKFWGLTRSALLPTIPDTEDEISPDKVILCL
# T1 sequence (Q16531 whole entry partner): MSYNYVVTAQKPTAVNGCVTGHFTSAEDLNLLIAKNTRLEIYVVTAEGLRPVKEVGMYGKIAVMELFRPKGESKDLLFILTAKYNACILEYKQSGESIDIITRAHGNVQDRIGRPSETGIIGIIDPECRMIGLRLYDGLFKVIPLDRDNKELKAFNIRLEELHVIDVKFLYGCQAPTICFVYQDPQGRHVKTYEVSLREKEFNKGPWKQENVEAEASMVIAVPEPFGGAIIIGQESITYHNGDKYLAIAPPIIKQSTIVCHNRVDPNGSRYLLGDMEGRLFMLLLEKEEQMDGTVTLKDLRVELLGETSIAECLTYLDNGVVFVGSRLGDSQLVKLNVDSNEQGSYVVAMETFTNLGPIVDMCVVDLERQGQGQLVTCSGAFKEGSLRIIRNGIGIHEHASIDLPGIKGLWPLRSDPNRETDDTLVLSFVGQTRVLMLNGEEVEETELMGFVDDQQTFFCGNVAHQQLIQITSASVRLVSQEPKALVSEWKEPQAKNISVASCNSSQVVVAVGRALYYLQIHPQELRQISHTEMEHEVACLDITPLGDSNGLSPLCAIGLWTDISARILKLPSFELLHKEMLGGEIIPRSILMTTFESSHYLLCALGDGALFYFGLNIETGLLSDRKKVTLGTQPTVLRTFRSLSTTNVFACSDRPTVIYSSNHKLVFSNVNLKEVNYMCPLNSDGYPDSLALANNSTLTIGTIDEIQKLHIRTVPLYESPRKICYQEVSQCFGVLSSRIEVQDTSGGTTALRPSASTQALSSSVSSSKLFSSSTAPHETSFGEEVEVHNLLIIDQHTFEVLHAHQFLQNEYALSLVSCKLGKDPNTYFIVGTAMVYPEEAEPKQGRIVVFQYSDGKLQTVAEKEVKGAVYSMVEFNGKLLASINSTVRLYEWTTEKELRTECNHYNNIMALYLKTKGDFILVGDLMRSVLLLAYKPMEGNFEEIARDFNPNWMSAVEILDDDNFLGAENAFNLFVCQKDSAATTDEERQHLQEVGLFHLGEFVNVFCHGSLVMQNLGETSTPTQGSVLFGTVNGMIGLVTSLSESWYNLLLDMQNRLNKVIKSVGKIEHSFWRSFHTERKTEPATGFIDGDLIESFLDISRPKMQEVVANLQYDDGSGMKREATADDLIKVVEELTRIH
# T2 sequence (Q9UKT9 whole entry): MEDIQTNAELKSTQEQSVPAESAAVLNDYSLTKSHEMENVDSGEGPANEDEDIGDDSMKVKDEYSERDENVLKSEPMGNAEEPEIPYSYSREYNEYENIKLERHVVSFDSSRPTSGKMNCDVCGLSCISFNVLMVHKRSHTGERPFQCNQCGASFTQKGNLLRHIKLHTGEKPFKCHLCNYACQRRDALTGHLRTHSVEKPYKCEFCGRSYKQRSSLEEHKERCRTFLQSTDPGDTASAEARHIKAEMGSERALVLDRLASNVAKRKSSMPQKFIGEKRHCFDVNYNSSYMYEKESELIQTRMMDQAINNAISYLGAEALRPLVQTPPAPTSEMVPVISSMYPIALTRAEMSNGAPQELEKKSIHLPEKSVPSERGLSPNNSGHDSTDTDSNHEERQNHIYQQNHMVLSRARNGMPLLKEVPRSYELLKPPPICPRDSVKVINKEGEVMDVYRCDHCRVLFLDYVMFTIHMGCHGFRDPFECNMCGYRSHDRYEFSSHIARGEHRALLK
# T2 sequence (Q96SW2 whole entry): as the sequence (Q96SW2 whole entry) above
# T2 sequence (Q16531 whole entry partner): as the sequence (Q16531 whole entry partner) above
SMILES,DC50 [1] [nM],DC50 [2] [nM],DC50 [3] [nM]
COc1cc2nc([C@H]3CC[C@H](CN4CCC5(CC4)CC(Nc4cccc6c4C(=O)N(C4CCC(=O)NC4=O)C6=O)C5)CC3)sc2cc1NC(=O)c1cccc(C)n1 (some centres unmarked) [I-15],100 to 500,50 to 100,
CC(C)(O)c1cc2nc([C@H]3CC[C@H](CN4CCC5(CC4)CC(CCNc4cccc6c4C(=O)N(C4CCC(=O)NC4=O)C6=O)C5)CC3)sc2cc1NC(=O)c1cccc(C(F)(F)F)n1 (some centres unmarked) [I-5],< 50,< 50,
CC(C)(O)c1cc2nc([C@H]3CC[C@H](CN4CC5(CC(CCNc6cccc7c6C(=O)N(C6CCC(=O)NC6=O)C7=O)C5)C4)CC3)sc2cc1NC(=O)c1cnn2ccc(N3C[C@H]4C[C@@H]3CO4)nc12 (some centres unmarked) [I-61],,,> 1000
COc1cc2nc([C@H]3CC[C@H](CN4CCC5(CC4)CC(CCNc4cccc6c4C(=O)N(C4CCC(=O)NC4=O)C6=O)C5)CC3)sc2cc1NC(=O)c1cccc(C)n1 (some centres unmarked) [I-12],< 50,< 50,
COc1cc2nc([C@H]3CC[C@H](CN4CC5(CCC(CNc6cccc7c6C(=O)N(C6CCC(=O)NC6=O)C7=O)CC5)C4)CC3)sc2cc1NC(=O)c1cccc(C(C)(F)F)n1 (some centres unmarked) [I-11],100 to 500,50 to 100,
COc1cc2nc([C@H]3CC[C@H](CN4CC5(CC(CCNc6cccc7c6C(=O)N(C6CCC(=O)NC6=O)C7=O)C5)C4)CC3)sc2cc1NC(=O)c1cccc(C(C)(F)F)n1 (some centres unmarked) [I-8],< 50,< 50,
CN(CCCO[C@H]1C[C@H](Nc2cccc3c2C(=O)N(C2CCC(=O)NC2=O)C3=O)C1)C[C@H]1CC[C@H](c2nc3cc(C(C)(C)O)c(NC(=O)c4cccc(C(F)(F)F)n4)cc3s2)CC1 (some centres unmarked) [I-7],< 50,< 50,
COc1cc2nc([C@H]3CC[C@H](CN4CC5(CC(CCNc6cccc7c6C(=O)N(C6CCC(=O)NC6=O)C7=O)C5)C4)CC3)sc2cc1NC(=O)c1ccnc(C)n1 (some centres unmarked) [I-16],< 50,,
"CC(C)(O)c1cc2nc([C@H]3CC[C@@H](CN4CC5(CC(CCNc6cccc7c6C(=O)N(C6CCC(=O)NC6=O)C7=O)C5)C4)CC3)sc2cc1NC(=O)c1cccc(C(F)(F)F)n1 (stereo partly drawn) [I-62, N-(2-((1S,4S)-4-((6-(2-((2-(2,6-dioxopiperidin-3-yl)-1,3-dioxoisoindolin-4-yl)amino)ethyl)-2-azaspiro[3.3]heptan-2-yl)methyl)cyclohexyl)-5-(2-hydroxypropan-2-yl)benzo[d]thiazol-6-yl)-6-(trifluoromethyl)picolinamide]",< 50,< 50,50 to 100
CC(C)(O)c1cc2nc([C@H]3CC[C@H](CN4CC5(CC(CCCNc6cccc7c6C(=O)N(C6CCC(=O)NC6=O)C7=O)C5)C4)CC3)sc2cc1NC(=O)c1cccc(C(F)(F)F)n1 (some centres unmarked) [I-13],< 50,< 50,
CC(C)(O)c1cc2nc(N3CCC(CN4CC5(CC(CCNc6cccc7c6C(=O)N(C6CCC(=O)NC6=O)C7=O)C5)C4)CC3)sc2cc1NC(=O)c1cccc(C(F)(F)F)n1 (centres unmarked) [I-36],< 50,< 50,
CC(C)(O)c1nc2nc([C@H]3CC[C@H](CN4CC5(CC(CCNc6cccc7c6C(=O)N(C6CCC(=O)NC6=O)C7=O)C5)C4)CC3)sc2cc1NC(=O)c1cccc(C(F)(F)F)n1 (some centres unmarked) [I-43],< 50,< 50,
COc1cc2nc([C@H]3CC[C@H](CN4CCC5(CC4)CC(CCNc4cccc6c4C(=O)N(C4CCC(=O)NC4=O)C6=O)C5)CC3)sc2cc1NC(=O)c1ccnc(C)n1 (some centres unmarked) [I-17],< 50,< 50,
CC(C)(O)c1cc2nc(N3CCC(CN4CCC5(CC4)CC(CCNc4cccc6c4C(=O)N(C4CCC(=O)NC4=O)C6=O)C5)CC3)sc2cc1NC(=O)c1cccc(C(F)(F)F)n1 (centres unmarked) [I-18],< 50,< 50,
CC(C)(O)c1cc2nc([C@H]3CC[C@H](CN4CC5(CC(CCNc6cccc7c6C(=O)N(C6CCC(=O)NC6=O)C7=O)C5)C4)CC3)sc2cc1NC(=O)c1cccc(C(C)(F)F)n1 (some centres unmarked) [I-56],< 50,< 50,< 50
COc1cc2nc([C@H]3CC[C@H](CN4CCC(CCNc5cccc6c5C(=O)N(C5CCC(=O)NC5=O)C6=O)CC4)CC3)sc2cc1NC(=O)c1cccc(C(C)(F)F)n1 (some centres unmarked) [I-9],50 to 100,< 50,
COc1cc2nc([C@H]3CC[C@H](CN4CC5(CC(CCNc6cccc7c6C(=O)N(C6CCC(=O)NC6=O)C7=O)C5)C4)CC3)sc2cc1NC(=O)c1cccc(C(F)(F)F)n1 (some centres unmarked) [I-10],< 50,< 50,
"CC(C)(O)c1cc2nc([C@H]3CC[C@H](CN4CC5(CC(CCNc6cccc7c6C(=O)N([C@@H]6CCC(=O)NC6=O)C7=O)C5)C4)CC3)sc2cc1NC(=O)c1cccc(C(F)(F)F)n1 (single isomer, unassigned) [I-65]",< 50,< 50,< 50
CC(C)(O)c1cc2nc(N3CC(CN4CCC5(CC4)CC(CNc4cccc6c4C(=O)N(C4CCC(=O)NC4=O)C6=O)C5)C3)sc2cc1NC(=O)c1cccc(C(F)(F)F)n1 (centres unmarked) [I-38],< 50,< 50,
COc1cc2nc([C@H]3CC[C@H](CN(C)[C@H]4CC[C@@]5(CC4)C[C@@H](CNc4cccc6c4C(=O)N(C4CCC(=O)NC4=O)C6=O)C5)CC3)sc2cc1NC(=O)c1cccc(C(F)(F)F)n1 (some centres unmarked) [I-14],50 to 100,< 50,
CC(C)(O)c1cc2nc(N3CC(CN4CC5(CC(CNc6cccc7c6C(=O)N(C6CCC(=O)NC6=O)C7=O)C5)C4)C3)sc2cc1NC(=O)c1cccc(C(F)(F)F)n1 (centres unmarked) [I-44],< 50,< 50,
"CC(C)(O)c1cc2nc([C@H]3CC[C@H](CN4CC5(CC(CCNc6cccc7c6C(=O)N([C@H]6CCC(=O)NC6=O)C7=O)C5)C4)CC3)sc2cc1NC(=O)c1cccc(C(F)(F)F)n1 (single isomer, unassigned) [I-66]",< 50,< 50,< 50
CC(C)(O)c1cc2nc(N3CCC(CN4CCC5(CC4)CC(Nc4cccc6c4C(=O)N(C4CCC(=O)NC4=O)C6=O)C5)CC3)sc2cc1NC(=O)c1cccc(C(F)(F)F)n1 (centres unmarked) [I-4],< 50,< 50,
COc1cc2nc([C@H]3CC[C@H](CN4CCC(O[C@H]5C[C@H](Nc6cccc7c6C(=O)N(C6CCC(=O)NC6=O)C7=O)C5)CC4)CC3)sc2cc1NC(=O)c1cccc(C(F)(F)F)n1 (some centres unmarked) [I-39],< 50,< 50,
